{
  "source": "patent US4486445A",
  "about": "“Justicidin insecticidal and antiviral compounds” (E. I. Du Pont de Nemours and Company, priority 1983, dated 1984)",
  "key": {"Aedes egypti larvae [1]": {"test_system": "Aedes egypti larvae", "experiment": "insecticidal activity against larvae of A. egypti in water", "type": "in vivo", "details": "Aedes; larvae of A. egypti in H2O; read-out: EC50 (effective kill concentration for 50% of the experimental larvae)", "protocol": "(§1) The insecticidal activity of the crude acetone/water extracts of Justicia extensa, prepared according to the isolation procedure described previously, was tested against laboratory cultures of the mosquito species Aedes egypti (Linnaeus) and southern army worm (SAW) Spodoptera eridania (Cramer). Extracts of leaves, branches and roots were employed in each test.\nIn tests against larvae of A. egypti, 10 mg of the crude plant extract was thoroughly dispersed in 20 ml of water in a test tube to which 10 first instar larvae were added."}, "A/JAX inbred mice": {"test_system": "A/JAX inbred mice", "experiment": "in vivo oral toxicity in A/JAX inbred mice", "details": "orally, 200 and 100 mg/kg", "protocol": "(§2) In vivo toxicity studies of natural and synthetic Justicidin P produced mixed results. […] However, natural and synthetic Justicidin P were toxic to A/JAX inbred mice when administered orally at dosages of 200 and 100 mg/kg."}, "[2]": {"test_system": "southern army worm (SAW) Spodoptera eridania", "experiment": "spray applied to SAW", "type": "in vivo", "protocol": "When a spray containing 2.0 mg/ml purified Justicidin P in water was applied to SAW, 85% feeding inhibition but 0% kill was observed."}, "[3]": {"test_system": "Herpes Type 2-Alabama strain", "experiment": "plaque formation inhibition, Herpes Type 2 in HeLa cells", "type": "cell-based"}, "Herpes Type 1-strain VR3": {"test_system": "Herpes Type 1-strain VR3", "experiment": "plaque formation inhibition, Herpes Type 1 in HeLa cells", "type": "cell-based"}, "[4]": {"test_system": "Human Rhino Virus (HRV-2)", "experiment": "inhibition of HRV-2 in HeLa cells", "type": "cell-based, Human rhinovirus HRV-2", "details": "Rhinovirus A, 200 PFU"}, "out-bred mice": {"test_system": "out-bred mice", "experiment": "in vivo oral toxicity in out-bred mice", "details": "orally, up to about 324 mg/kg", "protocol": "as §2"}, "HeLa cells": {"test_system": "HeLa cells", "type": "cell-based", "details": "64 μg/ml to 1 μg/ml"}, "[5]": {"experiment": "in vitro toxicity in MDCK cells", "type": "cell-based, Canine", "details": "dog", "protocol": "In vitro toxicity studies of natural Justicidin P were conducted using Madin-Darby Canine Kidney (MDCK) cells and test concentrations ranging between 0.01 and 0.56 μg/ml. In these tests, Justicidin P was suspended in MEM, diluted, and suspended in a purified agar solution. Duplicate plates containing MDCK cell layers were washed twice with HBSS, overlayed with the test compound-agar solutions, and incubated at 34° C., 5% CO2 for 72 hours. At the conclusion of the incubation period, cell layers were stained with 1% crystal violet, rinsed with tap water, dried and visually inspected to determine toxicity."}, "Aedes egypti larvae [6]": {"test_system": "Aedes egypti larvae", "experiment": "insecticidal activity against larvae of A. egypti in water", "type": "in vivo", "details": "lower concentrations"}, "IMR-90 cells": {"test_system": "IMR-90 cells", "details": "all concentrations tested"}, "Spodoptera eridania": {"test_system": "Spodoptera eridania", "experiment": "insecticidal and feeding inhibition test against southern army worm in pinto bean diet", "type": "in vivo", "protocol": "as §1"}, "in vitro": {"experiment": "in vitro", "details": "human, diploid fibroblast cells"}},
  "data": [
    {"smiles": "COc1cc2c(OC)c3c(c(-c4ccc5c(c4)OCO5)c2cc1OC)C(=O)OC3OC", "note": "(single isomer, unassigned) [Justicidin P (natural)]", "values": [
      {"measurement": "LC50", "setting": "Aedes egypti larvae [1]", "value": 0.05, "unit": "µg/mL"},
      {"measurement": "in vivo toxicity", "setting": "A/JAX inbred mice", "value": "toxic"},
      {"measurement": "mortality at 2000 µg/mL", "setting": "[2]; Spodoptera eridania, topical, read-out: kill", "value": 0, "unit": "%"},
      {"measurement": "feeding inhibition", "setting": "[2]; spray containing 2.0 mg/ml in water", "value": 85, "unit": "%"},
      {"measurement": "Mean Plaques/Plate", "setting": "[3]; 0.004 μg/ml, HSV-2, HeLa", "value": 136},
      {"measurement": "Mean Plaques/Plate", "setting": "[3]; 0.016 μg/ml, HSV-2, HeLa", "value": 114},
      {"measurement": "Mean Plaques/Plate", "setting": "[3]; 0.063 μg/ml, HSV-2, HeLa", "value": 60},
      {"measurement": "Mean Plaques/Plate", "setting": "[3]; 0.25 μg/ml, HSV-2, HeLa", "value": 7},
      {"measurement": "antiviral activity against Herpes Type 2", "setting": "[3]; HeLa cells", "value": "demonstrated antiviral activity"},
      {"measurement": "inhibition at 0.004 µg/mL", "setting": "[3]; Human alphaherpesvirus 2, 0.004 μg/ml, HSV-2, HeLa", "value": 14, "unit": "%"},
      {"measurement": "inhibition at 0.016 µg/mL", "setting": "[3]; Human alphaherpesvirus 2, 0.016 μg/ml, HSV-2, HeLa", "value": 28, "unit": "%"},
      {"measurement": "inhibition at 0.063 µg/mL", "setting": "[3]; Human alphaherpesvirus 2, 0.063 μg/ml, HSV-2, HeLa", "value": 62, "unit": "%"},
      {"measurement": "inhibition at 0.25 µg/mL", "setting": "[3]; Human alphaherpesvirus 2, 0.25 μg/ml, HSV-2, HeLa", "value": 96, "unit": "%"},
      {"measurement": "Mean Plaques/Plate", "setting": "Herpes Type 1-strain VR3; 0.004 μg/ml, HSV-1, HeLa", "value": 134},
      {"measurement": "Mean Plaques/Plate", "setting": "Herpes Type 1-strain VR3; 0.016 μg/ml, HSV-1, HeLa", "value": 117},
      {"measurement": "Mean Plaques/Plate", "setting": "Herpes Type 1-strain VR3; 0.063 μg/ml, HSV-1, HeLa", "value": 122},
      {"measurement": "Mean Plaques/Plate", "setting": "Herpes Type 1-strain VR3; 0.25 μg/ml, HSV-1, HeLa", "value": 87},
      {"measurement": "antiviral activity against Herpes Type 1", "setting": "Herpes Type 1-strain VR3; HeLa cells", "value": "demonstrated antiviral activity"},
      {"measurement": "inhibition at 0.004 µg/mL", "setting": "Herpes Type 1-strain VR3; Human alphaherpesvirus 1, 0.004 μg/ml, HSV-1, HeLa", "value": 0, "unit": "%"},
      {"measurement": "inhibition at 0.016 µg/mL", "setting": "Herpes Type 1-strain VR3; Human alphaherpesvirus 1, 0.016 μg/ml, HSV-1, HeLa", "value": 6, "unit": "%"},
      {"measurement": "inhibition at 0.063 µg/mL", "setting": "Herpes Type 1-strain VR3; Human alphaherpesvirus 1, 0.063 μg/ml, HSV-1, HeLa", "value": 2, "unit": "%"},
      {"measurement": "inhibition at 0.25 µg/mL", "setting": "Herpes Type 1-strain VR3; Human alphaherpesvirus 1, 0.25 μg/ml, HSV-1, HeLa", "value": 31, "unit": "%"},
      {"measurement": "inhibition at 0.016 µg/mL", "setting": "[4]; HRV2, 0.016 μg/ml", "value": 107, "unit": "%"},
      {"measurement": "inhibition at 0.08 µg/mL", "setting": "[4]; HRV2, 0.08 μg/ml", "value": "≥ 100", "unit": "%"},
      {"measurement": "inhibition at 0.4 µg/mL", "setting": "[4]; HRV2, 0.4 μg/ml", "value": "≥ 100", "unit": "%"},
      {"measurement": "inhibition at 2 µg/mL", "setting": "[4]; HRV2, 2 μg/ml", "value": "≥ 100", "unit": "%"},
      {"measurement": "inhibition at 10 µg/mL", "setting": "[4]; HRV2, 10 μg/ml", "value": 64, "unit": "%"},
      {"measurement": "in vivo toxicity", "setting": "out-bred mice", "value": "no toxicity was observed"},
      {"measurement": "cytotoxicity", "setting": "HeLa cells", "value": "severe cytotoxicity"},
      {"measurement": "cytotoxicity at 72 h", "setting": "[5]; 0.01 μg/ml", "value": 1, "unit": "%"},
      {"measurement": "cytotoxicity at 72 h", "setting": "[5]; 0.02 μg/ml", "value": 5, "unit": "%"},
      {"measurement": "cytotoxicity at 72 h", "setting": "[5]; 0.05 μg/ml", "value": 15, "unit": "%"},
      {"measurement": "cytotoxicity at 72 h", "setting": "[5]; 0.11 μg/ml", "value": 30, "unit": "%"},
      {"measurement": "cytotoxicity at 72 h", "setting": "[5]; 0.25 μg/ml", "value": 40, "unit": "%"},
      {"measurement": "cytotoxicity at 72 h", "setting": "[5]; 0.56 μg/ml", "value": 70, "unit": "%"},
      {"measurement": "insecticidal activity of purified fractions", "setting": "Aedes egypti larvae [6]", "value": "insecticidal component of the J. extensa extracts"},
      {"measurement": "cytotoxicity", "setting": "IMR-90 cells", "value": "exhibited cytotoxicity at all concentrations tested"},
      {"measurement": "feeding inhibition", "setting": "Spodoptera eridania; 1 μg/gm in pinto bean diet", "value": 62, "unit": "%"},
      {"measurement": "feeding inhibition", "setting": "Spodoptera eridania; 10 μg/gm in pinto bean diet", "value": 77, "unit": "%"},
      {"measurement": "feeding inhibition", "setting": "Spodoptera eridania; 100 μg/gm in pinto bean diet", "value": 85, "unit": "%"},
      {"measurement": "mortality at 1 µg/g", "setting": "Spodoptera eridania; Spodoptera eridania, 1 μg/gm in pinto bean diet, read-out: kill", "value": 20, "unit": "%"},
      {"measurement": "mortality at 10 µg/g", "setting": "Spodoptera eridania; Spodoptera eridania, 10 μg/gm in pinto bean diet, read-out: kill", "value": 10, "unit": "%"},
      {"measurement": "mortality at 100 µg/g", "setting": "Spodoptera eridania; Spodoptera eridania, 100 μg/gm in pinto bean diet, read-out: kill", "value": 60, "unit": "%"},
      {"measurement": "selectivity ratio", "setting": "in vitro", "value": "10 to 60"}
    ]}
  ]
}
